According to patent US11259522B2, “Control of resistant pests” (priority 2017, dated 2022):
Values after ≈ are worked out from the molar mass of the structure shown. Read-outs that look alike come from different tables or passages of the source.

Key:
[1] = tested on: Cryptolestes ferrugineus susceptible strain QCF31; test: Grain protectant bioassay on treated wheat, C. ferrugineus susceptible; type: in vivo; conditions: for Progeny reduction (%): vs untreated control
[2] = tested on: M. persicae (green peach aphid) insecticide-susceptible population; test: Leaf dip bioassay, green peach aphid, susceptible population; type: in vivo, Myzus persicae; conditions: Susceptible population, 96 hours exposure
Procedure: Each colony was maintained separately on bok choi plants ([…]) within an exclusion cage in a constant temperature room at 24° C. with a photoperiod of 16:8 LD.
Laboratory bioassays were used to determine the efficacy of flavesone against M. persicae following the leaf dip method described in Moores et al. (1994, Pesticide Biochemistry and Physiology, 49, 114-120). A pilot study was first conducted which confirmed that the leaf dip method was appropriate to elicit a clear dose response for Flavocide 500EW against M. persicae, and to determine the appropriate rate range and timing of mortality assessments (scored at 24, 48, 72 & 96 hours) (data not shown).
Bioassays were then conducted to assess the efficacy of flavesone against a susceptible and resistant population of M. persicae, and to calculate LC values. The efficacy of a conventional insecticide, pirimicarb, was tested for comparison. Nine concentrations of flavesone ranging from 1×10^−3 to 10 times the proposed field rate (Table 15), and six concentrations of pirimicarb were serially diluted and tested, along with a water control, against the susceptible and resistant aphid populations. Leaf discs (25 mm diameter) cut from bok choi leaves were submerged for 1 second in the insecticide solutions, or in the water control, and placed adaxial side up on 10 g/L agar in 35 mm petri dishes. Six replicate leaf discs were prepared per treatment. Once leaves were air-dry, eight M. persicae nymphs were transferred to each insecticide-dipped leaf disc using a fine-haired paintbrush.
After aphid introduction, each petri dish was inverted onto a lid containing a 25 mm diameter filter paper to control humidity. All petri dishes were then placed into an incubator held at 18° C.±2° C. with a photoperiod of 16:8 LD cycle. At 48 & 96 hours, aphids were scored as alive (vibrant and moving freely), dead (not moving over a 5 second period), or incapacitated (inhibited movement).
Dose-response curves were generated by plotting percentage mortality against log concentration. Mortality data was analysed using a logistic regression model with random effects. Logistic regression is suited for the analysis of binary response data (i.e. dead/alive) with the random effect component of the model controlling for the non-independence of mortality scores within replicates. […] Population differences were tested by comparing the change in model deviance with and without the population factor (different regression intercepts for each population). Differences in regression slopes between populations were tested by comparing the change in model deviance with and without the population×dose interaction term.

[3] = tested on: Halotydeus destructor susceptible population; test: Coated plastic vial bioassay, redlegged earth mite, susceptible population; type: in vivo; conditions: for mortality at 300 µg/mL: 300 mg a.i./L
Procedure: The efficacy of flavesone against H. destructor was assessed using the glass vial technique developed by Hoffmann et al. (1997, Exp. Appl. Acarol., 21:151-162), adapted for plastic vials. A susceptible population of mites was collected from capeweed (Arctotheca calendula) at a Victorian site (37° 40′33″S, 145° 07′ 45″E) that had no known history of insecticide application. Following collection, samples were stored in small plastic containers with leaf material and paper towel to absorb excess moisture. Containers were kept at 4° C. prior to testing.
The test compositions included 0.1% Tween 20 non-ionic surfactant to aid the spread of insecticides when coating plastic vials. This concentration of Tween 20 has been previously shown to have no toxic effect on H. destructor. For each insecticide concentration tested, 3, 10, 30, 100, 300, 1000, 3000 and 10000 mg a.i./L (ppm), approximately 10 mL of solution was poured into a 15 mL plastic vial and swirled to ensure a complete coating, with excess liquid removed. Eight vials were coated per concentration and were left to dry overnight. Control vials were treated in the same way but with water used in place of test composition.
Eight susceptible H. destructor mites were then placed into each vial along with a leaf of common vetch (Vicia sativa). The leaf was added to provide food and increase humidity. Vials were then sealed with a lid and placed at 18° C. After 4, 6, 8 and 24 hours of exposure, the mites were scored as alive (moving freely), incapacitated (inhibited movement), or dead (no movement over a 5 second period). […]
The data produced in the assays were assessed for concentrations that caused 50, 90 and 99% mortality (lethal concentration, LC), together with 95% confidence intervals (CIs) and were estimated from observations of mortality after 24 hours exposure using a binomial logistic regression (Robertson & Preisler, 1992, Pesticide Bioassays with Arthropods. CRC: Boca Raton; Venables & Ripley, 2002, Modern Applied Statistics with S. Springer: New York). Population differences were tested by comparing the change in model deviance with and without the population factor (different regression intercepts for each population). Differences in regression slopes between populations were tested by comparing the change in model deviance with and without the population×dose interaction term. The resistance ratio of the insecticide-resistant population was estimated as the ratio of its LC50 to that of the susceptible population. All analyses were performed using R 3.3. (R Core Team 2017, R: A language and environment for statistical computing. R Foundation for Statistical Computing, Vienna, Austria. http://www.R-project.org).

[4] = tested on: Sitophilus oryzae strain QSO393 (resistant to fenitrothion); test: Grain protectant bioassay on treated wheat, S. oryzae resistant; type: in vivo; conditions: for Progeny reduction (%): vs untreated control
[5] = tested on: Oryzaephilus surinamensis strain QOS302 (resistant to fenitrothion & chlorpyrifos-methyl); test: Grain protectant bioassay on treated wheat, O. surinamensis resistant; type: in vivo; conditions: for Progeny reduction (%): vs untreated control
[6] = Susceptible population, 24 hours exposure

CC(C)C(=O)C1C(=O)C(C)(C)C(=O)C(C)(C)C1=O [Flavesone, 1-isobutyroyl-3,3,5,5-tetramethylcyclohexane-2,4,6-trione]
Live adult progeny ([1]; 25 mg/kg, mean ± SE): 72.0 ± 20.3 | Progeny reduction (%) ([1]; 25 mg/kg): 76.5% | Progeny reduction (%) ([1]; 25 mg/kg, listed as flavesone): ~75% | Live adult progeny ([1]; 60 mg/kg, mean ± SE): 0.0 ± 0.0 | Progeny reduction (%) ([1]; 60 mg/kg): 100% | mortality at 25 mg/kg ([1]; Cryptolestes ferrugineus, 336 h, 25 mg/kg, 2 weeks, mean ± SE, read-out: Adult mortality (%)): 27.5 ± 17.5% | mortality at 60 mg/kg ([1]; Cryptolestes ferrugineus, 336 h, 60 mg/kg, 2 weeks, mean ± SE, read-out: Adult mortality (%)): 90% | LC50 ([2]; Myzus persicae, foliar, read-out: LC50 (mg a.i./L)): 2730 µg/mL (≈ 10.8 mM) | LC90 (mg a.i./L) [2]: 6,034 mg a.i./L | LC99 (mg a.i./L) [2]: 14,330 mg a.i./L | mortality ([3]; Example 9, all application rates above 300 mg a.i./L, by 4 hours exposure): 100% | mortality at 300 µg/mL ([3]; Halotydeus destructor, Example 9, 4 hours of exposure, read-out: mortality (average)): 55% | mortality at 300 µg/mL ([3]; Halotydeus destructor, Example 9, by 8 hours of exposure, read-out: mortality): 100% | LC50 ([3]; Halotydeus destructor, Susceptible population, 24 hours exposure, read-out: LC50 (mg a.i./L)): 40.6 µg/mL (≈ 0.161 mM) | LC90 (mg a.i./L) [3, 6]: 142.55 mg a.i./L | LC99 (mg a.i./L) [3, 6]: 561.35 mg a.i./L | Live adult progeny ([4]; 25 mg/kg, mean ± SE): 572.7 ± 100.9 | Progeny reduction (%) ([4]; 25 mg/kg): 6.1% | Live adult progeny ([4]; 60 mg/kg, mean ± SE): 430.0 ± 51.0 | Progeny reduction (%) ([4]; 60 mg/kg): 29.5% | Progeny reduction (%) ([4]; 60 mg/kg, listed as flavesone): 29% | mortality at 25 mg/kg ([4]; Sitophilus oryzae, 336 h, 25 mg/kg, 2 weeks, mean ± SE, read-out: Adult mortality (%)): 0.7 ± 0.7% | mortality at 60 mg/kg ([4]; Sitophilus oryzae, 336 h, 60 mg/kg, 2 weeks, mean ± SE, read-out: Adult mortality (%)): 0.7 ± 0.7% | Live adult progeny ([5]; 25 mg/kg, mean ± SE): 160.3 ± 15.7 | Progeny reduction (%) ([5]; 25 mg/kg): 61.2% | Adult mortality (%) ([5]; 60 mg/kg, 2 weeks, mean ± SE): 14.7 ± 8.7% | Live adult progeny ([5]; 60 mg/kg, mean ± SE): 0.0 ± 0.0 | Progeny reduction (%) ([5]; 60 mg/kg): 100% | mortality at 25 mg/kg ([5]; Oryzaephilus surinamensis, 336 h, 25 mg/kg, 2 weeks, mean ± SE, read-out: Adult mortality (%)): 0.7% | mortality at 60 mg/kg ([5]; Oryzaephilus surinamensis, 336 h, 60 mg/kg, 2 weeks, mean ± SE, read-out: Adult mortality (%)): 14%
